From patent US20160045449A1, “Formulations and Methods for Attenuating Respiratory Depression Induced by Opioid Overdose” (Alpharma Pharmaceuticals LLC, priority 2010, published 2016)
Structures can show the parent of a compound that is named as a salt.

Tests used:
[1] = in comparison to a 15 mg dose of hydrocodone
[2] = after oral administration; cited from earlier work
[3] = cited from earlier work
[4] = cited from earlier work; remark: listed apart in the source
[5] = Example 4: six-way crossover study, naltrexone (12% w/w) on oxycodone-induced euphoria, with pulse oximetry (SpO2); type: in vivo, human
Source text: As a safety component of this study, pulse oximetry was monitored routinely to monitor for signs and symptoms of oxycodone-induced respiratory depression.

[6] = patients; versus equivalent dose of morphine; cited from earlier work

## COc1ccc2c3c1O[C@H]1[C@@H](O)C=C[C@H]4[C@@H](C2)N(C)CC[C@@]341 [codeine]
[1]
  equianalgesic calculated dose: 90.0 mg

## C[C@H]1[C@H]2Cc3ccc(O)cc3[C@]1(C)CCN2CC1CC1 [cyclazocine]
[2]
  duration of action: ~24 h

## COc1ccc2c3c1OC1C(=O)CC[C@H]4[C@@H](C2)N(C)CC[C@]314 (stereo partly shown) [hydrocodone, 4,5-epoxy-3-methoxy-17-methylmorphinan-6-one]
[1]
  equianalgesic calculated dose: 15.0 mg

## CN1CC[C@]23CCCC[C@H]2[C@H]1Cc1ccc(O)cc13 [levorphanol]
[1]
  equianalgesic calculated dose: 1.8 mg

## CCC(=O)C(CC(C)N(C)C)(c1ccccc1)c1ccccc1 (stereo not shown) [methadone]
[1]
  equianalgesic calculated dose: 9.0 mg

## O=C1CC[C@@]2(O)[C@H]3Cc4ccc(O)c5c4[C@@]2(CCN3CC2CC2)[C@H]1O5 [naltrexone HCl, naltrexone hydrochloride]
[3]
  solubility in water: about 100 mg/cc

## O=C1CC[C@@]2(O)[C@H]3Cc4ccc(O)c5c4[C@@]2(CCN3CC2CC2)[C@H]1O5 [naltrexone]
[4]
  time of absorption following oral administration (rapidly absorbed): ≤ 1 h
[4]; oral administration
  oral bioavailability: 5-40%
[5]; oral oxycodone 60 mg + naltrexone 7.2 mg (12%)
  effect on euphoric effects of oxycodone: abating the euphoric effects of oxycodone 60 mg
[5]; oral oxycodone 60 mg + naltrexone 7.2 mg (12%) vs oxycodone 60 mg and placebo, opioid-experienced adult subjects
  effect on respiratory depressant effects of oxycodone (SpO2, pulse oximetry): attenuated the respiratory depressant effects of oxycodone
[2]
  duration of action: ~24 h

## COc1ccc2c3c1O[C@H]1C(=O)CC[C@@]4(O)[C@@H](C2)N(C)CC[C@]314 [oxycodone]
[1]
  equianalgesic calculated dose: 13.5 mg
[6]
  extent and speed of onset of induced respiratory depression: dose dependent and greater than an equivalent dose of morphine
